The results in this text go back to US20140296216A1, “PYRIMIDO[4,5-D]PYRIMIDINYL COMPOUNDS, PHARMACEUTICAL COMPOSITIONS AND USES THEREOF” (GUANGZHOU INSTITUTE OF BIOMEDICINE AND HEALTH, CHINESE …, priority 2011, published 2014).

One test has as its target EGFRWT (Homo sapiens, UniProt P00533). The test can be described thus: In vitro enzymatic activity assay (Z'-LYTE), wild type EGFR. Particulars: Z'-LYTE FRET peptide assay; read-out: EGFRWT kinase activity (IC50). It is filed as biochemical. Put shortly: (§1)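 Z'-LYTE FRET coupled-enzyme format: kinase phosphorylates FRET peptide substrate, then after one hour a site-specific protease cleaves non-phosphorylated peptide. After another hour, excitation at 400 nm and emission read at 445 and 520 nm.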

A further test deals with T1, EGFR T790M kinase (Homo sapiens, UniProt P00533, T790M).
T1 construct: purchased invitrogen PV4803
T1 sequence (P00533 25-1210 T790M): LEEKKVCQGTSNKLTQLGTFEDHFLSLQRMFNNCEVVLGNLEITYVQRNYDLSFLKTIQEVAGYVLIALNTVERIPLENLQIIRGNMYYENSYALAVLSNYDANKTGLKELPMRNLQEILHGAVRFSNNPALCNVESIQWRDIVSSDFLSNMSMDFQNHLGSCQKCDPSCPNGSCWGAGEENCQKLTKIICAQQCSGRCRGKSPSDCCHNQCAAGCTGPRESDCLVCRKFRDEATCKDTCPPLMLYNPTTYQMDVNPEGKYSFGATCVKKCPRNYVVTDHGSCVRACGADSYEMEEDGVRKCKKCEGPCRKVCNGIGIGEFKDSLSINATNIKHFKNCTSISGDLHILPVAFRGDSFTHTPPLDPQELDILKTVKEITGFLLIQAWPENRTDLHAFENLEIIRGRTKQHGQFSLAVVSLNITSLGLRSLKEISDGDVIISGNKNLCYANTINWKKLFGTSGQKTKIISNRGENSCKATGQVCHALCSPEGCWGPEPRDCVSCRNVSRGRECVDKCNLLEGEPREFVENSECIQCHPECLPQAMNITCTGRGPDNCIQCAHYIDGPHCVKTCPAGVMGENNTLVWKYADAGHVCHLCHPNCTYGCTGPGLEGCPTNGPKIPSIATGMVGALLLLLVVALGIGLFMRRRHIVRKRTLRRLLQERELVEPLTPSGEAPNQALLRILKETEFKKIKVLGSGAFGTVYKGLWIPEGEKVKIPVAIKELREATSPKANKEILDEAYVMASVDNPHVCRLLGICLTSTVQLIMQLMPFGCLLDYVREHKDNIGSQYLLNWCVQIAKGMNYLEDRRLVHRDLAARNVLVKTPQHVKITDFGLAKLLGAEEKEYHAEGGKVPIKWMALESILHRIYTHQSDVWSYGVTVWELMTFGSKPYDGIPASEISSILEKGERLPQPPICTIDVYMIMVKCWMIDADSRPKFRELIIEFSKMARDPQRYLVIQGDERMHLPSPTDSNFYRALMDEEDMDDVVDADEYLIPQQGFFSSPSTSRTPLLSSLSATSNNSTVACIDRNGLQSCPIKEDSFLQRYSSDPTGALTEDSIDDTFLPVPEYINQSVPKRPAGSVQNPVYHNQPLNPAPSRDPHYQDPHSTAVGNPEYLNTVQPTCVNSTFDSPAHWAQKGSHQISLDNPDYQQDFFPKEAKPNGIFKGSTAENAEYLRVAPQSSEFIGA
The test can be described thus: In vitro enzymatic activity assay (Z'-LYTE), EGFR T790M. It counts as biochemical. Particulars: Z'-LYTE FRET peptide assay; read-out: EGFRT790M kinase activity (IC50). Put shortly:
as §1

Another test addresses EGFRL858R (Homo sapiens, UniProt P00533, L858R). The test can be described thus: In vitro enzymatic activity assay (Z'-LYTE), EGFR L858R. It is filed as biochemical. Particulars: Z'-LYTE FRET peptide assay; read-out: EGFRL858R kinase activity (IC50). Put shortly:
as §1

In another test the target is EGFRL861Q (Homo sapiens, UniProt P00533, L861Q). The test can be described thus: In vitro enzymatic activity assay (Z'-LYTE), EGFR L861Q. It counts as biochemical. Particulars: Z'-LYTE FRET peptide assay; read-out: EGFRL861Q kinase activity (IC50). Put shortly: as §1
EGFRL861Q, sequence (P00533 25-1210 L861Q): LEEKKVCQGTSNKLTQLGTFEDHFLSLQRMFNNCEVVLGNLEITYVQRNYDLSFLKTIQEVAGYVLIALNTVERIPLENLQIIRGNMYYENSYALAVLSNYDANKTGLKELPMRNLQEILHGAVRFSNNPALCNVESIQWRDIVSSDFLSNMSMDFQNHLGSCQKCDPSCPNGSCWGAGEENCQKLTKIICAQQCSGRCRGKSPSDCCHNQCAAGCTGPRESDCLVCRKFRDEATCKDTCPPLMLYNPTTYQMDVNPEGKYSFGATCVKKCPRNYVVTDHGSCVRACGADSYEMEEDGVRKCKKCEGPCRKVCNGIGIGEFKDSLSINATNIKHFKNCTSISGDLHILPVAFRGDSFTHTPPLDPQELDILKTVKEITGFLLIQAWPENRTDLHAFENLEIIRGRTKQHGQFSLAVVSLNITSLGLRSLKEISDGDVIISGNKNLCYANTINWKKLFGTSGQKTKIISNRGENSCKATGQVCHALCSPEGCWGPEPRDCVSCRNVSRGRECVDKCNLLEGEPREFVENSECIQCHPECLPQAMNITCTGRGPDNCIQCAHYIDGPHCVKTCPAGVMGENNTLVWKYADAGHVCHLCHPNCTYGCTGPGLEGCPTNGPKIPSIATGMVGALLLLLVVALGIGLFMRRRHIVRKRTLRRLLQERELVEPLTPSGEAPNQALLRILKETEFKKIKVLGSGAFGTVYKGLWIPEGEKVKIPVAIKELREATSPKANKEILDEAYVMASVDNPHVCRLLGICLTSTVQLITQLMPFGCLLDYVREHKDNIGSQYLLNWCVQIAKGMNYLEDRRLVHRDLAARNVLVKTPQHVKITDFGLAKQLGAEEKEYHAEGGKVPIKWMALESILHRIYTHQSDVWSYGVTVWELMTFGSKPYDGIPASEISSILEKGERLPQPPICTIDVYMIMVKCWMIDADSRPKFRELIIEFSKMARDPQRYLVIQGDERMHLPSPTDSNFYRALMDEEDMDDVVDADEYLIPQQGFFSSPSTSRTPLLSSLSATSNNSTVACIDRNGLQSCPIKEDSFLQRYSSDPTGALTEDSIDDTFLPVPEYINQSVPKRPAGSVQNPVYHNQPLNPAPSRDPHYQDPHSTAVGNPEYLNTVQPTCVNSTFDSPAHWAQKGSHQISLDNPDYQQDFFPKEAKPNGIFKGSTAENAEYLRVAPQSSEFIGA
For a further test, the target named is EGFRL858R + T790M (Homo sapiens, UniProt P00533, L858R/T790M). The test can be described thus: In vitro enzymatic activity assay (Z'-LYTE), EGFR L858R + T790M. Particulars: Z'-LYTE FRET peptide assay; read-out: EGFRL858R + T790M kinase activity (IC50). It is filed as biochemical. Summed up: as §1
EGFRL858R + T790M, sequence (P00533 25-1210 T790M/L858R): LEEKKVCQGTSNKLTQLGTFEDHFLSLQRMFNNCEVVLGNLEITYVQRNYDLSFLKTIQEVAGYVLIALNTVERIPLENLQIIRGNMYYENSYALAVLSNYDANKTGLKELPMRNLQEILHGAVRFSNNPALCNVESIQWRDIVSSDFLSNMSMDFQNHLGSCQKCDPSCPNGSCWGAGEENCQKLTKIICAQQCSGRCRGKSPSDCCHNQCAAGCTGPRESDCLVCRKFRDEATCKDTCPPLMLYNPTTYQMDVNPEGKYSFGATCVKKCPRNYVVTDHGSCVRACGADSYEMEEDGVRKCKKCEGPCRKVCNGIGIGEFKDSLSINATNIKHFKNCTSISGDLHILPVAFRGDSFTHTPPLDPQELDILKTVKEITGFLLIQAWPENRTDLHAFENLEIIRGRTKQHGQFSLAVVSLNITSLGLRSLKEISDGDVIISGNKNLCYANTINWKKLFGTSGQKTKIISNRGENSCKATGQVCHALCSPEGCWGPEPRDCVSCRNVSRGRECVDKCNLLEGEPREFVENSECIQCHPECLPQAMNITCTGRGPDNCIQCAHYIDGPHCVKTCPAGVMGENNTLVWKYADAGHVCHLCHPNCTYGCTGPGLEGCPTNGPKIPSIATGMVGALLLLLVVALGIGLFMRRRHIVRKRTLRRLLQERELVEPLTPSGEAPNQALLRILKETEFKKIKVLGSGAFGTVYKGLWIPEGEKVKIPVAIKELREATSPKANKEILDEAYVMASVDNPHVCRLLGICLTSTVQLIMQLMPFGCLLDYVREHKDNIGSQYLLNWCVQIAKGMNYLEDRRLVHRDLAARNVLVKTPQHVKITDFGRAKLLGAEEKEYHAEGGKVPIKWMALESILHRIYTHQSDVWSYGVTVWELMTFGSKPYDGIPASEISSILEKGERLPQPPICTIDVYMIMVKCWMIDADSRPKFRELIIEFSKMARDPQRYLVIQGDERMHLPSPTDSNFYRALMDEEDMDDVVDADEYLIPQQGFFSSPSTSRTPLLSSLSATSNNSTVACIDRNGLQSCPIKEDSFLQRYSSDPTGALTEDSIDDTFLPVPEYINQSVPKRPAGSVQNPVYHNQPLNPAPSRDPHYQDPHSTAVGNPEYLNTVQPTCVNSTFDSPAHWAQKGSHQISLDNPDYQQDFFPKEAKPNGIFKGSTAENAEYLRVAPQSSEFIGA
Test [1] deals with H1975 (lung cancer cells, EGFR L858R&T790M). The experiment in a line: Cell proliferation by MTT, H1975. It is filed as cell-based. Particulars: Homo sapiens, NCI-H1975, read-out: H1975 50% inhibitory concentration (IC50), 72 h.
Test [2] has as its system HCC827 (lung cancer cells, EGFR E746-A750 deletion). The experiment in a line: Cell proliferation by MTT, HCC827. It is filed as cell-based. Particulars: Homo sapiens, HCC827, read-out: HCC827 50% inhibitory concentration (IC50), 72 h.
Test [3] has as its system A431 (Human epidermal carcinoma, EGFR high expression). The test can be described thus: Cell proliferation by MTT, A431. It is filed as cell-based. Particulars: A-431, read-out: A431 50% inhibitory concentration (IC50), 72 h.
The subject of the next test is EGFR kinase. The experiment in a line: In vitro kinase assays of FIGS. 1-22 (WT EGFR and EGFR T790M), inhibition at fixed concentration. It counts as biochemical. Particulars: 1 μM; FIGS. 1-22 (WT EGFR, EGFR T790M). Here is the method: In vitro enzymatic activity assay: using Z′-LYTE™ technology (detect fluorescence, coupled-enzyme format, based on the differential sensitivity of phosphorylated and non-phosphorylated peptides to proteolytic cleavage), based on FRET, using Z′ LYTE™ FRET peptide substrate, detect the activity of compounds against enzymatic. (invitrogen, Z′-LYTE™ KINASE ASSAY KIT-TYR 2 PEPTIDE, PV3191) EGFR T790M kinase (invitrogen, PV4803) was diluted progressively, then FRET-peptide, ATP and different concentrations of compound are added to the solution. After one hour, site specific protease which can recognize and cleaves non-phosphorylated FRET-peptide. After another hour, using an excitation wavelength of 400 nm excites, then detect the […] at 445 nm and 520 nm.
In the enzymatic activity assay of 7-(substituted amino)-3,4-dihydropyrimido[4,5-d]pyrimidin-(1H)-ones against the EGFR kinase, due to the presence of the irreversible Michael addition reaction with the protein cysteine sites, some compounds show a relatively good inhibitive activity to both the two kinases. […] The R1 of 7-(substituted amino)-3,4-dihydropyrimido[4,5-d]pyrimidin-(1H)-ones plays a key role in the interaction between compounds and protein, especially when R1 is aryl, it can get the best activity. […]

The subject of test [4] is NCI-H820 (lung cancer cells). The experiment in a line: Cell proliferation by MTT, NCI-H820. It is filed as cell-based. Particulars: NCI-H820, read-out: NCI-H820 50% inhibitory concentration (IC50), 72 h.

EGFRL858R, sequence (P00533 25-1210 L858R): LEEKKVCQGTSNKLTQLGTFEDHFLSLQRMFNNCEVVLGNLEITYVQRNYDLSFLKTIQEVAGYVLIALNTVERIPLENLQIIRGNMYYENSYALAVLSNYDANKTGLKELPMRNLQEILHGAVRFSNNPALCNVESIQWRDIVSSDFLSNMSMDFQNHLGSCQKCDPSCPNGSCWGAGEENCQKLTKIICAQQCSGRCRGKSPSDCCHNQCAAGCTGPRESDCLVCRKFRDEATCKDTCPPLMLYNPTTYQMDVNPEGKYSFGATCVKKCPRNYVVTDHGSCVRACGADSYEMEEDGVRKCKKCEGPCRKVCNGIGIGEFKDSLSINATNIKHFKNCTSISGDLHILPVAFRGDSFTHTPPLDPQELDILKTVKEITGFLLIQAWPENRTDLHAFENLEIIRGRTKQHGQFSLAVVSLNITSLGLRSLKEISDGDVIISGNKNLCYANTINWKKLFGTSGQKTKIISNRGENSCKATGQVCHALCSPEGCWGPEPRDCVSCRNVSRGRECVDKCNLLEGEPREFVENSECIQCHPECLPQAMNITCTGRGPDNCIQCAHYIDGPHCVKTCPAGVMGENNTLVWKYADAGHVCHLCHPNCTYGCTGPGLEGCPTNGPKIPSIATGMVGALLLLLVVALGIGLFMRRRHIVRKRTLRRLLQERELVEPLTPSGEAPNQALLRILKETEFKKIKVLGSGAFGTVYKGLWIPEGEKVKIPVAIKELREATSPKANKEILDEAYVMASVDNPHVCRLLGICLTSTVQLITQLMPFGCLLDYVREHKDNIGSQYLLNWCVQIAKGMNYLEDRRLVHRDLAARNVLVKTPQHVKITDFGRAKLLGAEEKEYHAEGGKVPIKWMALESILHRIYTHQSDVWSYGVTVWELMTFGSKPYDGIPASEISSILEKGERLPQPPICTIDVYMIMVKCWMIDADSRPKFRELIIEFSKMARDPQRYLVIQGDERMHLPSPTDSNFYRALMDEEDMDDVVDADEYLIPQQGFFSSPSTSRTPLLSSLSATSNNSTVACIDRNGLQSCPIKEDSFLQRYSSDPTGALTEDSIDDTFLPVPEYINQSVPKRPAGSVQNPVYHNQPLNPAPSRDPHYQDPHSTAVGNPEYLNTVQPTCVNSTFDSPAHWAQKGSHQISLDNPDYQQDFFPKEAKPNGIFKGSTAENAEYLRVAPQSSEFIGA

Regarding `COc1cc(N2CCN(C)CC2)ccc1Nc1ncc2c(n1)N(c1cccc(N)c1)C(=O)N(C)C2` [C-EGF33, 1-(3-aminophenyl)-7-(2-methoxy-4-(4-methylpiperazin-1-yl)phenylamino)-3-methyl-3,4-dihydropyrimido[4,5-d]pyrimidin-2(1H)-one], the IC50 on EGFRWT is 0.1 to 1 µM; on EGFR T790M kinase, 1 to 10 µM; on EGFRL858R, 0.1 to 1 µM; at EGFRL861Q, 1 to 10 µM; on EGFRL858R + T790M, 1 to 10 µM; in test [1] it was more than 20 µM. Besides, the IC50 in test [2] is 4.89 µM; in test [3], more than 30 µM. In the test on EGFR kinase, the “inhibitive activity for inhibiting a kinase at a relatively high test concentration” value is reported as “poor”.

Regarding `C=CC(=O)Nc1cccc(N2C(=O)N(C)Cc3cnc(Nc4ccc(N5CCCCC5)cc4)nc32)c1` [Compound X002, N-(3-(3-methyl-2-oxo-7-(4-(piperidin-1-yl)phenylamino)-3,4-dihydropyrimido[4,5-d]pyrimidin-1(2H)-yl)phenyl)acrylamide], the IC50 was not above 0.01 µM at EGFRWT; not above 0.01 µM on EGFR T790M kinase; not above 0.01 µM at EGFRL858R; not above 0.01 µM at EGFRL861Q; not above 0.01 µM on EGFRL858R + T790M; 0.42 µM in [1]. Moreover, the results for the IC50 in test [2], in test [3] and in test [4] were 0.154 µM, 8.03 µM and more than 100 µM, respectively.

As to `C=CC(=O)Nc1cccc(N2C(=O)N(C)Cc3cnc(Nc4ccc(N5CCC(N6CCN(C)CC6)CC5)cc4)nc32)c1` [Compound X003, N-(3-(3-methyl-7-(4-(4-(4-methylpiperazin-1-yl)piperidin-1-yl)phenylamino)-2-oxo-3,4-dihydropyrimido[4,5-d]pyrimidin-1(2H)-yl)phenyl)acrylamide], the IC50 on EGFRWT is not above 0.01 µM; at EGFR T790M kinase, not above 0.01 µM; on EGFRL858R it was not above 0.01 µM; at EGFRL861Q, not above 0.01 µM; at EGFRL858R + T790M, not above 0.01 µM; in test [1], 0.179 µM. Moreover, the IC50 in test [2] is 0.125 µM; in test [3] it was 3.44 µM; in test [4] it was more than 100 µM.

Regarding `C=CC(=O)Nc1cccc(N2C(=O)N(C)Cc3cnc(Nc4ccc(N5CCC(N(C)C)CC5)cc4)nc32)c1` [Compound X004, N-(3-(7-(4-(4-(dimethylamino)piperidin-1-yl)phenylamino)-3-methyl-2-oxo-3,4-dihydropyrimido[4,5-d]pyrimidin-1(2H)-yl)phenyl)acrylamide], the IC50 on EGFRWT is not above 0.01 µM; on EGFR T790M kinase it was not above 0.01 µM; at EGFRL858R, not above 0.01 µM; at EGFRL861Q, not above 0.01 µM; at EGFRL858R + T790M, not above 0.01 µM; in test [1], 0.261 µM. Moreover, the IC50 was 0.181 µM in test [2], more than 100 µM in [3] and more than 100 µM in test [4].

As to `C=CC(=O)Nc1cccc(N2C(=O)N(C)Cc3cnc(Nc4ccc(N5CCSCC5)cc4)nc32)c1` [Compound X005, N-(3-(3-methyl-2-oxo-7-(4-thiomorpholinophenylamino)-3,4-dihydropyrimido[4,5-d]pyrimidin-1(2H)-yl)phenyl)acrylamide], the IC50 at EGFRWT is not above 0.01 µM; at EGFR T790M kinase, not above 0.01 µM; at EGFRL858R it was not above 0.01 µM; at EGFRL861Q, not above 0.01 µM; on EGFRL858R + T790M, not above 0.01 µM; in test [1], 0.333 µM. Besides, the values for the IC50 in test [2], in test [3] and in test [4] were 0.023 µM, 16.2 µM and more than 100 µM, respectively.

As for `C=CC(=O)Nc1cccc(N2C(=O)N(C)Cc3cnc(Nc4ccc(N5CCN(C)CC5)cc4OC(C)C)nc32)c1` [Compound X006, N-(3-(7-(2-isopropoxy-4-(4-methylpiperazin-1-yl)phenylamino)-3-methyl-2-oxo-3,4-dihydropyrimido[4,5-d]pyrimidin-1(2H)-yl)phenyl)acrylamide], the IC50 at EGFRWT was not above 0.01 µM; at EGFR T790M kinase it was 0.01 to 0.1 µM; on EGFRL858R, 0.01 to 0.1 µM; at EGFRL861Q it was 0.01 to 0.1 µM; on EGFRL858R + T790M, 0.01 to 0.1 µM; in [1] it was 0.543 µM. Moreover, the results for the IC50 in [2], in test [3] and in test [4] were 0.108 µM, 62.5 µM and more than 100 µM, respectively.

`C=CC(=O)Nc1cccc(N2C(=O)N(C)Cc3cnc(Nc4ccc(N5CCOCC5)cc4)nc32)c1` [Compound X007, N-(3-(3-methyl-7-(4-morpholinophenylamino)-2-oxo-3,4-dihydropyrimido[4,5-d]pyrimidin-1(2H)-yl)phenyl)acrylamide]: the IC50 on EGFRWT was not above 0.01 µM; on EGFR T790M kinase it was not above 0.01 µM; on EGFRL858R, not above 0.01 µM; at EGFRL861Q, not above 0.01 µM; on EGFRL858R + T790M it was not above 0.01 µM; in test [1] it was 0.696 µM. Further, the IC50 in [2] was 0.256 µM; in test [3] it was 3.48 µM; in [4] it was more than 100 µM.

Take `C=CC(=O)Nc1cccc(N2C(=O)N(C)Cc3cnc(Nc4ccc(OCCN5CCOCC5)cc4OC)nc32)c1` [Compound X008, N-(3-(7-(2-methoxy-4-(2-morpholinoethoxy)phenylamino)-3-methyl-2-oxo-3,4-dihydropyrimido[4,5-d]pyrimidin-1(2H)-yl)phenyl)acrylamide]: the IC50 was not above 0.01 µM on EGFRWT; 0.01 to 0.1 µM on EGFR T790M kinase; not above 0.01 µM at EGFRL858R; not above 0.01 µM at EGFRL861Q; not above 0.01 µM on EGFRL858R + T790M; 1.1 µM in test [1]. The IC50 in test [2] was 0.179 µM; in [3] it was 29.9 µM; in test [4], more than 100 µM.

Regarding `C=CC(=O)Nc1cccc(N2C(=O)N(C)Cc3cnc(Nc4ccc(N5CCN(C)CC5)cc4OCC)nc32)c1` [Compound X009, N-(3-(7-(2-ethoxy-4-(4-methylpiperazin-1-yl)phenylamino)-3-methyl-2-oxo-3,4-dihydropyrimido[4,5-d]pyrimidin-1(2H)-yl)phenyl)acrylamide], the IC50 was not above 0.01 µM at EGFRWT; 0.01 to 0.1 µM at EGFR T790M kinase; not above 0.01 µM on EGFRL858R; not above 0.01 µM at EGFRL861Q; not above 0.01 µM on EGFRL858R + T790M; 0.71 µM in test [1]. Further, the IC50 in test [2] is 0.003 µM; in test [3], more than 5 µM; in test [4], more than 100 µM.

Turning to `C=CC(=O)Nc1cccc(N2C(=O)N(C)Cc3cnc(Nc4ccc(N5CCN(C)CC5)cc4C)nc32)c1` [Compound X010, N-(3-(3-methyl-7-(2-methyl-4-(4-methylpiperazin-1-yl)phenylamino)-2-oxo-3,4-dihydropyrimido[4,5-d]pyrimidin-1(2H)-yl)phenyl)acrylamide], the IC50 at EGFRWT is not above 0.01 µM; on EGFR T790M kinase, not above 0.01 µM; at EGFRL858R, not above 0.01 µM; at EGFRL861Q, not above 0.01 µM; on EGFRL858R + T790M, not above 0.01 µM; in test [1] it was 0.173 µM. The IC50 in test [2] was determined as 0.053 µM; in test [3], 1.45 µM; in test [4], 41.5 µM.

Take `C=CC(=O)Nc1cccc(N2C(=O)N(C)Cc3cnc(Nc4ccc(N5CCN(C)CC5)cc4)nc32)c1` [x001, N-(3-(3-methyl-7-(4-(4-methylpiperazin-1-yl)phenylamino)-2-oxo-3,4-dihydropyrimido[4,5-d]pyrimidin-1(2H)-yl)phenyl)acrylamide]: the IC50 at EGFRWT was not above 0.01 µM; at EGFR T790M kinase it was not above 0.01 µM; on EGFRL858R, not above 0.01 µM; at EGFRL861Q, not above 0.01 µM; on EGFRL858R + T790M, not above 0.01 µM; in [1] it was 0.115 µM. Also, the IC50 is 0.029 µM in test [2], 3.97 µM in test [3] and more than 100 µM in test [4].
